Test results as given in patent US10272081B2, “SHIP1 modulators and methods related thereto” (Aquinox Pharmaceuticals (Canada) Inc., priority 2013, dated 2019).

Tests used:
[1] = tested on: passive cutaneous anaphylaxis in mice; assay: Passive cutaneous anaphylaxis in mice; assay type: in vivo; settings: oral gavage, doses less than 20 mg/kg
Method: The activity of representative compounds on passive cutaneous anaphylaxis in mice was evaluated according to the procedures disclosed by Ovary, J Immunol 81, 355-357, 1958 and Halpern et al., Br J Pharmacol Chemother 20, 389-398, 1963, both of which are incorporated herein by reference in their entirety.
To induce a passive cutaneous anaphylaxis, mice undergo intradermal ear inoculation on their right ear with 25 ng in 20 μL of anti-DNP-IgE. The left ears are untreated and serve as negative controls. Twenty-four hours after inoculation, all mice are administered test compound by oral gavage (PO). Sixty minutes after oral administration, mice are given a tail vein injection of 2% Evan's Blue (0.2 μm filtered, in 200 μL saline) followed by a second tail IV injection of 100 μg DNP-HSA (in 200 μL). Sixty minutes following the DNP-HAS injection, mice are euthanized using CO2 inhalation. Subsequently, ear biopsies are performed by taking four millimetre punches from both ears, which then undergo Evan's Blue extraction using formamide incubation in 96 well plates. Eighty μL of eluents are transferred to flat-bottom 96-well plates and absorbance read using SpectraMax M5 spectrophotometer (Molecular Devices, Sunnyvale, Calif., USA) at 620 nm. Background readings from all samples are taken at 740 nm and subtracted from the 620 nm readings. Data are reported as OD.

His-hSHIP1 enzyme [2] = molecular target: T1, His-hSHIP1 enzyme (Homo sapiens, UniProt Q92835); assay: His-hSHIP1 activity, approach 1 (phosphate release from IP4, Biomol Green); assay type: biochemical; settings: activation of His-hSHIP1; IP4 50 μM; test compound 0-300 μM; no asterisk in Table 2
T1 construct: His
T1 sequence (Q92835 1-1189): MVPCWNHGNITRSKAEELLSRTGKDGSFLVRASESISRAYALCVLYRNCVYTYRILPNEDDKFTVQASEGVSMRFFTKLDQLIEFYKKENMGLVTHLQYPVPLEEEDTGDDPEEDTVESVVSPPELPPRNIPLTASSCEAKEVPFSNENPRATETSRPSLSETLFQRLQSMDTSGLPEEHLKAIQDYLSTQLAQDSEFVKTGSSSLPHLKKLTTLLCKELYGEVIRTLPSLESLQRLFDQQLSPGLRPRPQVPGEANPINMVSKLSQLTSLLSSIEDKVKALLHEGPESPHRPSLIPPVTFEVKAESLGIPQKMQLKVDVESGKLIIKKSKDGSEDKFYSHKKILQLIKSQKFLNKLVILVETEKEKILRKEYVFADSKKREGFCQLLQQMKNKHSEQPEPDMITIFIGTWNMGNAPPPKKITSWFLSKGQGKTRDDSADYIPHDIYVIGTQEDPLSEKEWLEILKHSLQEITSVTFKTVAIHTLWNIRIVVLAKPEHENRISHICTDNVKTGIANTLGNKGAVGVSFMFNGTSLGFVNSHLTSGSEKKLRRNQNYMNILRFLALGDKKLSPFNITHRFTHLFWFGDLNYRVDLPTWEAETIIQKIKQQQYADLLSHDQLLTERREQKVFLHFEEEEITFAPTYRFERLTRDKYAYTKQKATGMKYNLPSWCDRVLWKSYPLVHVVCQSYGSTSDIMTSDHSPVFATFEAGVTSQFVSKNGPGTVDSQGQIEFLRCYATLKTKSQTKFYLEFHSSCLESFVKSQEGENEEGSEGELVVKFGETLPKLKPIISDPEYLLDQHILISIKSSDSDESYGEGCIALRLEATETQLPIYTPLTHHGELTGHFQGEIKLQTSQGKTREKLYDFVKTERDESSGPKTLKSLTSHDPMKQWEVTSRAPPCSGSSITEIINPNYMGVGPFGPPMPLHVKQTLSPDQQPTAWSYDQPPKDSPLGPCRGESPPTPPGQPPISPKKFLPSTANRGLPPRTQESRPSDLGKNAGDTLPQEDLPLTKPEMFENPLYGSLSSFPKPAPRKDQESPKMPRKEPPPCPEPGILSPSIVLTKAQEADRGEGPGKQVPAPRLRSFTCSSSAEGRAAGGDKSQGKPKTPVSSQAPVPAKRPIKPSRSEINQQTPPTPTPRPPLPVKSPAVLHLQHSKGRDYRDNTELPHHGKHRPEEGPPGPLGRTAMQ
Method: (§1) Test compounds are dissolved in 95% ethanol to form stock solutions. Before screening, the stock solutions are diluted with Phosphatase Assay Buffer (20 mM Tris-HCL, 10 mM MgCl2 pH 7.5, 0.02% Tween 20) to form working assay solutions that contain 10% ethanol. The assay is carried out on 96-well microtiter plates using a modified procedure of that reported by Ong et al., Blood 110, 1942-1949, 2007 and Yang et al., Org Lett 7, 1073-1076, 2005, both of which references are incorporated herein by reference in their entirety.
Data were generated by one of two variant methods. Test compounds are screened by one of two approaches described as follows. In the first approach, each reaction contains 5 μL of His-hSHIP1 enzyme (5-20 ng), 10 μL of the substrate, 1,3,4,5-inositol tetrakisphosphate (IP4; 50 μM final), 5 μL of Phosphatase Assay Buffer, and 5 µL of test compound at various concentrations in 10% ethanol (0-300 μM final). Control blanks are also prepared by replacing His-hSHIP1 enzyme, IP4, or test compounds with Phosphatase Assay Buffer. After adding the reaction components in a 96-well microtiter plate on ice, the reaction is mixed by briefly shaking the plate vigorously. The reaction is then incubated at 37° C. for 15 min with gentle shaking followed by addition of 100 μL of Biomol Green Reagent (BIOMOL, Pa., USA) to terminate the reaction. The free phosphate released from IP4 by His-hSHIP1 binds to the Biomol Green Reagent, which turns the dye to green color. After incubating the mixture for 20 min at room temperature for color development, the absorbance is read with SpectraMax Plus 96-well plate reader (Molecular Devices, Sunnyvale, Calif., USA) at a wavelength of 650 nm.

[3] = tested on: Akt phosphorylation in Jurkat (SHIP1−) lymphocytes; assay: Akt phosphorylation in lymphocytes, Jurkat (Western blot); assay type: cell-based; parameters: key: +: inhibits Akt phosphorylation at 10 μM; −: no effect on Akt phosphorylation at 10 μM; settings: 10 μM; IGF-1 stimulated Jurkat (PTEN−/SHIP1−) cells
Method: (§2) Jurkat (PTEN−/SHIP1−) or Molt-4 (PTEN−/SHIP1+) cells are starved in serum free RPMI for overnight. In a 15 mL conical tube, 2-3 million serum starved cells (1 million cells per mL) are treated with various concentrations of test compound (0.1, 1, or 10 μM final in 0.1% DMSO) for 30 min at 37° C. followed by stimulation with 100 ng/mL of IGF-1 for 1 hour at 37° C. After stimulation, cells are washed once with ice-cold DPBS and lysed with Lysis Buffer (20 mM Tris-HCl, pH 7.5, 140 mM NaCl, 1% NP-40, Complete Mini Protease Inhibitor Cocktail, 10 mM NaF, 1 mM Na3VO4, 1 mM β-glycerolphosphate) on ice for 30 min with vortexing every 10 min. Samples are then centrifuged at 13,000 rpm for 20 min, and supernatants are collected as total cell lysate samples. Protein concentration is determined using bicinchonic acid assay, and about 15 μg of total protein from each sample is loaded and separated on a 4-12% Tris-Glycine gel. After SDS-PAGE, proteins are transferred from the gel to a nitrocellulose membrane. The membrane is blocked in 5% BSA in PBS containing 0.1% Tween-20 (PBS-T) for 1 hour at room temperature before probing with primary antibodies for overnight at 4° C. The following antibodies are used: mouse anti-SHIP1 (1:500 dilution; Santa Cruz, Calif., USA), rabbit anti-phospho-Akt(Ser473) (1:1000 dilution; Cell Signaling Technologies, MA, USA), rabbit anti-Akt (1:1000; Cell Signaling Technologies, MA, USA), and rabbit anti-actin (1:2000; Cell Signaling Technologies, MA, USA). The membrane is then incubated with goat anti-rabbit or anti-mouse secondary antibodies (1:3000) for 1 hour at room temperature. Target proteins on the membrane are detected with ECL solution and exposed on a film.

His-hSHIP1 enzyme [4] = molecular target: T1, His-hSHIP1 enzyme; assay: His-hSHIP1 activity, approach 2 (ratio of initial velocities IP4 25/IP4 250); assay type: biochemical; parameters: key: +++: higher than reference or reference - 15%; ++: reference - 16% to reference - 30%; +: reference - 31% or lower; settings: ratio of initial velocities IP4 25/IP4 250 versus reference SHIP1 activator; asterisk in Table 2
Method: as §1
In the second approach, a master mix is prepared that contains […] (0.4-1.6 ng/μL final), 25 μL of the substrate, IP4 (25 or 250 μM final), and 50 μL of test compound in 3.3% ethanol ([…]). Control blanks are also prepared by replacing His-hSHIP1 enzyme, IP4, or test compounds with Phosphate Assay Buffer. […] Each reaction component is preincubated at 37° C. for 30 min before adding to a 96-well microtiter plate. The master mix is then incubated at 37° C. At time 0, 20, 25 and 30 min, 25 μL of the master mix is removed and transferred to a new 96-well microtiter plate, to which 100 μL of Biomol Green Reagent is added to stop the reaction. After incubating the mixture for 20 min at room temperature for color development, the absorbance is read with SpectraMax Plus 96-well plate reader at a wavelength of 650 nm. Phosphate released is plotted against time to calculate the initial velocities (i.e., slope of the graph) at each IP4 concentration. The initial velocities are baseline corrected and the ratio of initial velocities (IP425/IP4250) is calculated and used to rate the test compounds.

[5] = tested on: Akt phosphorylation in Molt-4 (SHIP1+) lymphocytes; assay: Akt phosphorylation in lymphocytes, Molt-4 (Western blot); assay type: cell-based; parameters: key: +: inhibits Akt phosphorylation at 10 μM; −: no effect on Akt phosphorylation at 10 μM; settings: 10 μM; IGF-1 stimulated Molt-4 (PTEN−/SHIP1+) cells
Method: as §2

Compound: C[C@H]1CC[C@H]2C(C)(C)CCC[C@]2(C)[C@H]1CC(O)c1cc(O)cc(O)c1 (stereo partly drawn) [Compound No. 58, 5-{2-[(1S,2S,4aS,8aR)-2,5,5,8a-tetramethyl-decahydronaphthalen-1-yl]-1-hydroxyethyl}benzene-1,3-diol]
- % Inhibition of allergen-induced passive cutaneous anaphylaxis [1]: +++ (>50% inhibition)
- Scoring, Approach 1 (% increase relative to background) (His-hSHIP1 enzyme [2]): +++ (x ≥65)

Compound: Cc1cc(O)cc(C[C@H]2[C@@H](C(=O)O)CC[C@H]3C(C)(C)CCC[C@]23C)c1 [Compound No. 20, (1S,2S,4aS,8aR)-1-[(3-hydroxy-5-methylphenyl)methyl]-5,5,8a-trimethyl-decahydronaphthalene-2-carboxylic acid]
- Jurkat (SHIP1 −), Akt phosphorylation [3]: −
- Scoring, Approach 2 (Initial velocity Ratio) (His-hSHIP1 enzyme [4]): +++
- Molt-4 (SHIP +), Akt phosphorylation [5]: −

Compound: Cc1cc(O)cc(C(=O)[C@H]2[C@H](C)[C@H](NC(=O)Nc3cccnc3)C[C@H]3C(C)(C)CCC[C@]23C)c1 [Compound No. 138, 3-[(2R,3S,4S,4aS,8aS)-4-[(3-hydroxy-5-methylphenyl)carbonyl]-3,4a,8,8-tetramethyl-decahydronaphthalen-2-yl]-1-(pyridin-3-yl)urea]
- Scoring, Approach 2 (Initial velocity Ratio) (His-hSHIP1 enzyme [4]): ++

Compound: Cc1cc(O)cc(C(=O)[C@H]2[C@H](C)[C@H](NC(=N)N)C[C@H]3C(C)(C)CCC[C@]23C)c1 [Compound No. 175, 1-[(2R,3S,4S,4aS,8aS)-4-[(3-hydroxy-5-methylphenyl)carbonyl]-3,4a,8,8-tetramethyl-decahydronaphthalen-2-yl]guanidine]
- Scoring, Approach 2 (Initial velocity Ratio) (His-hSHIP1 enzyme [4]): ++

Compound: C=C1[C@H](C(=O)c2cc(OC)cc(OC)c2)[C@@]2(C)CCCC(C)(C)[C@@H]2C[C@H]1O [Compound No. 141, (2R,4R,4aS,8aS)-4-[(3,5-dimethoxyphenyl)carbonyl]-4a,8,8-trimethyl-3-methylidene-decahydronaphthalen-2-ol]
- Scoring, Approach 2 (Initial velocity Ratio) (His-hSHIP1 enzyme [4]): +

Compound: Cc1cc(O)cc(C(=O)[C@H]2[C@H](C)C(C(=O)O)C[C@H]3C(C)(C)CCC[C@]23C)c1 (stereo partly drawn) [Compound No. 68, (3S,4S,4aS,8aS)-4-[(3-hydroxy-5-methylphenyl)carbonyl]-3,4a,8,8-tetramethyl-decahydronaphthalene-2-carboxylic acid]
- Jurkat (SHIP1 −), Akt phosphorylation [3]: −
- Scoring, Approach 2 (Initial velocity Ratio) (His-hSHIP1 enzyme [4]): +++
- Molt-4 (SHIP +), Akt phosphorylation [5]: −

Compound: Cc1cc(O)cc(C(=O)[C@H]2C(C)C(N)C[C@H]3C(C)(C)CCC[C@]23C)c1.Cl (stereo partly drawn) [Compound No. 22, 3-{[(1S,4aS,8aS)-3-amino-2,5,5,8a-tetramethyl-decahydronaphthalen-1-yl]carbonyl}-5-methylphenol hydrochloride]
- Jurkat (SHIP1 −), Akt phosphorylation [3]: −
- Scoring, Approach 1 (% increase relative to background) (His-hSHIP1 enzyme [2]): + (0 < x < 50)
- Molt-4 (SHIP +), Akt phosphorylation [5]: +

Compound: C[C@@H]1[C@H](NCc2cnc[nH]2)C[C@H]2C(C)(C)CCC[C@]2(C)[C@H]1C(=O)c1cc(O)cc(O)c1 [Compound No. 119, 5-{[(1S,2S,3R,4aS,8aS)-3-[(1H-imidazol-5-ylmethyl)amino]-2,5,5,8a-tetramethyl-decahydronaphthalen-1-yl]carbonyl}benzene-1,3-diol]
- Scoring, Approach 2 (Initial velocity Ratio) (His-hSHIP1 enzyme [4]): ++
